Laboratory results published in US7172749B2, “Radiolabeled irreversible inhibitors of epidermal growth factor receptor tyrosine kinase and their use in radioimaging and radiotherapy” (priority 2001, dated 2007).
Where two headings read alike, the source gives them in different places.

Assays:
[1] = system: A431 cells; assay: Specific binding measurements in intact A431 cells; parameters: species or system human
Experimental: Specific Binding Measurements in Intact A431 Cells: […] After incubation, cells were harvested with a cell harvester (Brandel […], model […], Brandel, Gaithersburg, Md., USA) and were counted in a gamma-counter (1480 WizardTM 3''). The specific binding of the radiolabeled inhibitor was calculated by subtracting the radioactivity level of cells pre-incubated with the non-labeled inhibitor from the radioactivity level of cells pre-incubated with the vehicle only.

[2] = system: A431 tumor; assay: Biodistribution in tumor (A431) bearing rats; assay type: in vivo, rat; details: for tumor uptake / course of tumor uptake with time: tumor (A431) bearing rats; for tumor/blood ratios: data not shown
Experimental: WAG rnu/rnu male rats (300–400 grams) were injected s.c. in the left or right hind limb, or in the neck, with A431 cells (1×10^7 in 200 μl sterile PBS). Tumor growth was monitored every 2–3 days by calipers. One to two weeks after inoculation, the rats were ready to be used in the following in-vivo biodistribution, metabolic and PET studies. Tumor mass ranging between 2 and 3 grams were used in these experiments. Biodistribution: […] Animals were sacrificed at specific time points (between 0 and 1 hour) by means of CO2 asphyxiation. Blood and certain organs and tissues including tumors were collected or excised, counted in a gamma-counter and weighed. % ID/organ, % ID/gram of tissue and tissue/blood uptake ratios were calculated.

[3] = system: A431 tumor; assay: Positron Emission Tomography studies in tumor bearing nude rats; assay type: in vivo, rat; details: for bladder excretion (PET coronal views): FIG. 12
Experimental: (§1) WAG rnu/rnu male rats (300–400 grams) were injected s.c. in the left or right hind limb, or in the neck, with A431 cells (1×10^7 in 200 μl sterile PBS). Tumor growth was monitored every 2–3 days by calipers. One to two weeks after inoculation, the rats were ready to be used in the following in-vivo biodistribution, metabolic and PET studies. Tumor mass ranging between 2 and 3 grams were used in these experiments.
Positron Emission Tomography studies: Preliminary dynamic PET scans were performed on a Positron Corporation HZL/R scanner (intrinsic spatial resolution: in-plane 5.8 mm, axial 6.3 mm). Rats were anaesthetized with pentothal (85 mg/Kg) and placed supine on a flat polystyrene foam support with feet taped to the support, so as to minimize movements. […] The PET data were normalized for variations in detector sensitivity, and corrected for wobble, randoms, scatter and deadtime. Attenuation correction was applied using the measured transmission scan data. PET images of the Posicam system (Positron Corporation) were reconstructed by filtered back-projection using a Butterworth filter (cut-off 0.2 cycles/mm, order 10). […] These experiments were conducted with the same rats, two days after the first set of experiments.

[4] = Biological stability (metabolism) in blood, liver and tumor of rats; assay type: in vivo, rat
Experimental: as §1, with “experiments. Biological Stability: […] In general, control rats were injected with the radiolabeled compounds and sacrificed at several time points. […] Ether was then added and the samples were counted in a gamma-counter. Blood, homogenized liver and tumor samples were extracted and the extracted fractions were measured for activity in a gamma-counter, spotted onto TLC, and the radioactivity was detected with phosphor imaging plates.” for “experiments.”

[5] = target: EGFR-TK autophosphorylation in intact A431 cells (Homo sapiens, UniProt P00533); assay: cell-based
Sequence of EGFR-TK autophosphorylation in intact A431 cells (P00533 25-1210): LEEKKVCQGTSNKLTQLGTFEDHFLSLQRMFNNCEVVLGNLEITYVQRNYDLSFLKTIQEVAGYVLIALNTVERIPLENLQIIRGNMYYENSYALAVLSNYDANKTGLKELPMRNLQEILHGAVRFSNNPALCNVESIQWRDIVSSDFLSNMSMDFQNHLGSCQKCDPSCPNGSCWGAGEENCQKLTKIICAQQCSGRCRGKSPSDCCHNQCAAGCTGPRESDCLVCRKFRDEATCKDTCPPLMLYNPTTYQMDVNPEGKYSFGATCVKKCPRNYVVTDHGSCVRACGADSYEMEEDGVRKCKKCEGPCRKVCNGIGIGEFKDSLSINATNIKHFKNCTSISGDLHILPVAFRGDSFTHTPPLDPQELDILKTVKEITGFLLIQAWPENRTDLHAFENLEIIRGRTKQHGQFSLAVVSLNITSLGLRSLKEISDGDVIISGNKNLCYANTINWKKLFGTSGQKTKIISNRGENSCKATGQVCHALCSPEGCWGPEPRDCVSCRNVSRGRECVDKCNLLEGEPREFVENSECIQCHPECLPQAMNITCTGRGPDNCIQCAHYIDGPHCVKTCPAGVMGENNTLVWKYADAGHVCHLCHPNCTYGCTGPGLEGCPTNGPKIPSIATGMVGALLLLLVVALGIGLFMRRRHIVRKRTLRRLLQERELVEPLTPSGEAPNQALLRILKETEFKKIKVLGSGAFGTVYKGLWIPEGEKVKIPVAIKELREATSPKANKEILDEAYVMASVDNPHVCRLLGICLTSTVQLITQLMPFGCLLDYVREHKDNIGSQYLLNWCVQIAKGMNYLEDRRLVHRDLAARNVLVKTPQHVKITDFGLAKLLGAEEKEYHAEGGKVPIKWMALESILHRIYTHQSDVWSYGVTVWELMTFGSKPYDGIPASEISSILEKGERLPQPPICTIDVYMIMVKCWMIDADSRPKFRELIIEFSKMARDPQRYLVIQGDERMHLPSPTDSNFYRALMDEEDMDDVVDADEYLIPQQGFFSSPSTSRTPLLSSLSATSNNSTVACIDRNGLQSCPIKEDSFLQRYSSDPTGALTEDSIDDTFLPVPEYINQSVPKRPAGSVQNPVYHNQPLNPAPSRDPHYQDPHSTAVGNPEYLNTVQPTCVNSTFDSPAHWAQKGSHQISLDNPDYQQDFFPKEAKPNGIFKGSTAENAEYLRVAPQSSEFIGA
Experimental: Autophosphorylation Inhibition Experiments in Intact A431 Cells:
A431 cells (10^6) were seeded in 6-well plates and grown to 60–80% confluence in DMEM (high glucose) containing 10% fetal calf serum (FCS) and antibiotics at 37° C. The cells were then exposed to serum-free medium, at 37° C., for 18 hours.
Irreversibility assay: Variable concentrations of the inhibitor, ranging from 0.05 nM to 50 nM, were added to A431 cells for 2 hours incubation. The inhibitor was diluted in vehicle/DMSO and the final concentration of DMSO was 0.05% in each well). The medium was replaced thereafter with an inhibitor/FCS-free medium and the cells were left for either 2 or 8 hours, at 37° C. During the 8 hours period, the medium was changed three more times. After the post-incubation period, the cells were stimulated with EGF (20 ng/ml) for 5 minutes and then washed with PBS. Whole-cell lysates were obtained by scraping the cells into the well with 0.4 ml of Leammli buffer (10% glycerol, 3% sodium dodecyl sulfate, 5% b-mercaptoethanol, 50 mM Tris pH 6.8) that contained 0.001% bromophenol blue, and boiling for 5 minutes.
Western blots: Identical protein amounts from each lysate sample were loaded onto polyacrylamide gel (6% or 10%), separated by electrophoresis (Hoefer Pharmacia Diotech Inc., San Francisco, USA) and transferred to nitrocellulose membrane (power supply: EPS 500/400, Amersham Pharmacia Biotech; nitrocellulose extra blotting membranes: Sartorius A G, Goettingen, Germany). A standard high molecular weight solution was loaded as a reference. For visualization of molecular weight bands, the membrane was immersed in Ponceau reagent (0.05% Ponceau, 5% acetic acid) for a few minutes, and then washed twice with TTN (10 mM Tris pH 7.4, 0.2% TWEEN 20, 170 mM NaCl) and once with water. The membrane was blocked overnight in TTN containing 5% milk (1% fat) (blocking TTN) and incubated for 90 minutes with PY20 antiphosphotyrosine antibody (Santa Cruz Biotechnology Inc., Santa Cruz, USA) diluted 1:2,000 in blocking TTN. The membrane was then washed with TTN (3×5 minutes), incubated for 90 minutes with a horseradish peroxidase-conjugated secondary antibody (Goat anti-mouse IgG H+L, Jackson ImResearch Laboratories, Inc, diluted 1:10,000 in blocking TTN), and finally washed again with TTN (3×5 minutes). The membrane was incubated in a luminol-based solution (1 minute, 0.1 M Tris pH 8.5, 250 μM luminol, 400 μM p-cumaric acid, 0.033% H2O2) and visualized using chemiluminescent detection.
Quantification of the EGFR-P (protein) bands density obtained was performed using Adobe Photoshop 5.0ME and NIH image 1.16/ppc programs.

[6] = target: EGFR autophosphorylation in intact A431 cells (Homo sapiens, UniProt P00533); assay: EGFR autophosphorylation inhibition rate measurements in intact A431 cells; assay type: cell-based; details: 30 nM inhibitor
Sequence of EGFR autophosphorylation in intact A431 cells (P00533 25-1210): as above
Experimental: A431 cells (10^6) were seeded in 6-well plates and grown to 60–80% confluence in DMEM (high glucose) containing 10% fetal calf serum (FCS) and antibiotics at 37° C.
After the incubation, the medium was replaced with an inhibitor/FCS-free medium, the cells were kept at 37° C. for either 1 or 8 hours, stimulated thereafter with EGF and lysated as described hereinabove. The protein determination assay was then performed once with n=1 for each time point of the 1 hour post-incubation set of cells left, and with n=2 (for each time point) for the 8 hours post-incubation set of cells.
The strips were then washed (3×15 minutes) with fading solution (20% MeOH, 7% acetic acid) and dried.
For visualization of molecular weight bands, the membrane was immersed in Ponceau reagent (0.05% Ponceau, 5% acetic acid) for a few minutes, and then washed twice with TTN (10 mM Tris pH 7.4, 0.2% TWEEN 20, 170 mM NaCl) and once with water. The membrane was blocked overnight in TTN containing 5% milk (1% fat) (blocking TTN) and incubated for 90 minutes with PY20 antiphosphotyrosine antibody (Santa Cruz Biotechnology Inc., Santa Cruz, USA) diluted 1:2,000 in blocking TTN.

[7] = target: EGFR-TK (Homo sapiens, UniProt P00533); assay: biochemical; details: 3 μM ATP
Sequence of EGFR-TK (P00533 25-1210): as above
Experimental: All the following incubations were performed at room temperature and with constant shaking. […] The final volume for each well was 150 μl.
After removing the unbound m108, the plate was washed and PBS containing 5% milk (1% fat) was added for the blocking (25 minutes).
One aliquot of A431 cell lysate was thawed and added to the plate.
After 25 minutes, and without washing the plate, ATP/MnCl2 solution was added in each well. The final concentration was 3 μM ATP/5 mM MnCl2. In this step the temperature was kept at 26° C. and the plate was under constant shaking. The incubation with ATP/MnCl2 was for 5 minutes.
Then, to stop the phosphorylation reaction, EDTA was added (pH 8, final concentration in each well 20 mM) and after 1 minute all the plate was washed.
Afterward, polyclonal anti-phosphotyrosine serum (Sugen, Inc.) was added (dilution of antibody in TBST containing 5% milk). The incubation was for 45 minutes.

CN(C)CC=CC(=O)Nc1ccc2ncnc(Nc3cc(Cl)c(Cl)cc3F)c2c1 [carbon-11 labeled Compound 4, carbon-11 labeled N-{4-[(3,4-dichloro-6-fluorophenyl)amino]quinazoline-6-yl}-4-(dimethylamino)-2-butenamide]
increase of specific binding as compared to carbon-11 labeled Compound 3 ([1]; A431 cells): 10% | specific binding to A431 cells ([1]; carbon-11 labeled tracer, non-specific binding from cells pre-incubated with non-labeled inhibitor): 78% | tumor uptake ([2]; 15 minutes post-administration): 0.25 % ID/gram | tumor uptake ([2]; 30 minutes post-administration): 0.24 % ID/gram | course of tumor uptake with time [2]: remained constant | PET visualization of the tumor ([3]; 250 μCi via jugular vein, dynamic scan): visualized throughout a 1-hour scan | bladder excretion (PET coronal views) [3]: slower and minimal bladder excretion | specific binding of radiolabeled inhibitor in tumor ([3]; PET, alone versus blocked with non-labeled compound): 50% | decrease of liver activity uptake ([3]; during one hour scanning time): 25% | course of activity uptake in the tumor ([3]; during the first one hour scan): remained constant | tumor uptake of tracer after pre-injection of non-labeled Compound 4 ([3]; non-labeled Compound 4 given 10 minutes before tracer, same rats 2 days later): blocked | total activity uptake in tumor when administered alone as compared with uptake after pre-injecting non-labeled compound ([3]; time activity curves of the tumor region (FIG. 10)): doubled | course of intact tracer in blood with time ([4]; 15 to 45 minutes post injection): no substantial reduction with time | tracer remaining intact in blood ([4]; 15 minutes post injection): 60% | metabolites (TLC) ([4]; 60 minutes post injection, tumor bearing rats): no metabolites

C=CC(=O)Nc1ccc2ncnc(Nc3cc(Cl)c(Cl)cc3F)c2c1 [carbon-11 labeled Compound 3, carbon-11 labeled N-{4-[(3,4-dichloro-6-fluorophenyl)amino]quinazoline-6-yl}acrylamide]
tumor/blood ratios ([2]; 15 minutes post administration): 0.09 % ID/gram | tumor/blood ratios ([2]; 30 minutes post administration): 0.05 % ID/gram | course of tumor uptake with time [2]: decreased with time | tracer remaining intact in blood ([4]; 15 minutes post injection): 20% | metabolites in liver and blood (TLC) ([4]; 30 minutes post injection, tumor bearing rats): detected | tracer remaining intact in blood ([4]; 45 minutes post injection): no tracer was remained

C=CC(=O)Nc1ccc2ncnc(Nc3cc(Cl)c(Cl)cc3F)c2c1 [Compound 3, N-{4-[(3,4-dichloro-6-fluorophenyl)amino]quinazoline-6-yl}acrylamide]
inhibition at 0.0005 µM ([5]; A-431, read-out: inhibition of EGFR autophosphorylation, 0.5 nM inhibitor, 2 h incubation, 2 hours in inhibitor/FCS-free media): ~35% | inhibition at 0.005 µM ([5]; A-431, read-out: inhibition of EGFR autophosphorylation, 5 nM inhibitor, 2 h incubation, 2 hours in inhibitor/FCS-free media): 40% | inhibition at 0.05 µM ([5]; A-431, read-out: inhibition of EGFR autophosphorylation, 50 nM inhibitor, 2 h incubation, 2 hours in inhibitor/FCS-free media): ~100% | inhibition at 0.05 µM ([5]; A-431, read-out: inhibition of EGFR autophosphorylation, 50 nM inhibitor, 2 h incubation, 8 hours post-incubation): ~97% | inhibition of EGFR autophosphorylation ([6]; 9 minutes incubation time, 1 hour post-incubation (FIG. 4), compared with the 80% inhibition of FIG. 3): same effect | inhibition at 0.03 µM ([6]; A-431, 10 minutes incubation time, 8 hours post-incubation (FIG. 3)): 80% | IC50 ([7]; IC50app of an exemplary dose-response autophosphorylation inhibition curve, single exemplary curve (FIG. 1 / FIG. 5), r2 0.995): 51 pM | IC50 ([7]; apparent IC50 average (IC50app), EGFR-TK autophosphorylation, average of 4 independent dose-response curves (n=4), spread ±0.016): 42 pM

OC[C@H]1O[C@@H](O)[C@H]([18F])[C@@H](O)[C@@H]1O [FDG, reference compound]
bladder excretion (PET coronal views) [3]: excreted in the bladder in great quantities
